Results taken from patent US9708318B2, “Bicyclic heterocycles as FGFR4 inhibitors” (Incyte Corporation, priority 2015, dated 2017).
Like-named read-outs stand apart in the source and are kept apart here.

Key:
FGFR3 enzyme = FGFR3 enzyme (Homo sapiens (Human), UniProt P22607); test: FGFR Enzymatic Assay (FRET peptide phosphorylation), FGFR3; type: biochemical; settings: read-out: FGFR3 IC50
Description: (§1) The inhibitor potency of the exemplified compounds was measured in an enzyme assay that measures peptide phosphorylation using FRET measurements to detect product formation. Inhibitors were serially diluted in DMSO and a volume of 0.5 μL was transferred to the wells of a 384-well plate.
(§2) GraphPad prism3 was used to analyze the data.

FGFR1 = FGFR1 (Homo sapiens (Human), UniProt P11362); test: FGFR Enzymatic Assay (FRET peptide phosphorylation), FGFR1
FGFR2 = FGFR2 (Homo sapiens (Human), UniProt P21802); test: FGFR Enzymatic Assay (FRET peptide phosphorylation), FGFR2; type: biochemical
Description: as §1
(§3) The enzymes were purchased from Millipore or Invitrogen.
as §2

FGFR4 = FGFR4 (Homo sapiens (Human), UniProt P22455); test: FGFR Enzymatic Assay (FRET peptide phosphorylation), FGFR4; type: biochemical
Description: as §1, §3, §2

[1] = pre-incubated for 5 to 10 minutes
[2] = FGFR1 IC50 (nM), pre-incubated for 4 hours
[3] = FGFR1 IC50 (nM), pre-incubated for 5 to 10 minutes

Sequence of FGFR4 (P22455 22-802): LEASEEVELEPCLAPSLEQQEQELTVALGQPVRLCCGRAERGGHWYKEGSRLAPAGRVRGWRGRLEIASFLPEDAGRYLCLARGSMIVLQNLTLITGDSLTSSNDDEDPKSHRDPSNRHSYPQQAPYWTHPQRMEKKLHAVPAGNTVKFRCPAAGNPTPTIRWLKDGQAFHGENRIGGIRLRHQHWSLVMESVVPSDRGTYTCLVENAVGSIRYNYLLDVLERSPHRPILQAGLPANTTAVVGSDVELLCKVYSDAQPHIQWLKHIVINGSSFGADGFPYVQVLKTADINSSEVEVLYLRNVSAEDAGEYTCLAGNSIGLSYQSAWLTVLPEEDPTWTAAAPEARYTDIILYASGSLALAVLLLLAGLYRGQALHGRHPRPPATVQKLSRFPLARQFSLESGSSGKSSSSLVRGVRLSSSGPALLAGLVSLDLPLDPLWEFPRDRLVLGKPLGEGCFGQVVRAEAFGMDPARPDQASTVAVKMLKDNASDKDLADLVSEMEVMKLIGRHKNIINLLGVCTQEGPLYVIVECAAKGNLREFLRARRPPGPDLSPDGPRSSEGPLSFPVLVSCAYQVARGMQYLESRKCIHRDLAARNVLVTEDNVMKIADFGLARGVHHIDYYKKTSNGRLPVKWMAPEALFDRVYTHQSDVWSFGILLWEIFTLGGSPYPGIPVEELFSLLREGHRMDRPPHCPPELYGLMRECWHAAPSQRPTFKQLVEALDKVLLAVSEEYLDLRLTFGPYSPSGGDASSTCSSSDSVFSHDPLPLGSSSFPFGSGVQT
Sequence of FGFR2 (P21802 22-821): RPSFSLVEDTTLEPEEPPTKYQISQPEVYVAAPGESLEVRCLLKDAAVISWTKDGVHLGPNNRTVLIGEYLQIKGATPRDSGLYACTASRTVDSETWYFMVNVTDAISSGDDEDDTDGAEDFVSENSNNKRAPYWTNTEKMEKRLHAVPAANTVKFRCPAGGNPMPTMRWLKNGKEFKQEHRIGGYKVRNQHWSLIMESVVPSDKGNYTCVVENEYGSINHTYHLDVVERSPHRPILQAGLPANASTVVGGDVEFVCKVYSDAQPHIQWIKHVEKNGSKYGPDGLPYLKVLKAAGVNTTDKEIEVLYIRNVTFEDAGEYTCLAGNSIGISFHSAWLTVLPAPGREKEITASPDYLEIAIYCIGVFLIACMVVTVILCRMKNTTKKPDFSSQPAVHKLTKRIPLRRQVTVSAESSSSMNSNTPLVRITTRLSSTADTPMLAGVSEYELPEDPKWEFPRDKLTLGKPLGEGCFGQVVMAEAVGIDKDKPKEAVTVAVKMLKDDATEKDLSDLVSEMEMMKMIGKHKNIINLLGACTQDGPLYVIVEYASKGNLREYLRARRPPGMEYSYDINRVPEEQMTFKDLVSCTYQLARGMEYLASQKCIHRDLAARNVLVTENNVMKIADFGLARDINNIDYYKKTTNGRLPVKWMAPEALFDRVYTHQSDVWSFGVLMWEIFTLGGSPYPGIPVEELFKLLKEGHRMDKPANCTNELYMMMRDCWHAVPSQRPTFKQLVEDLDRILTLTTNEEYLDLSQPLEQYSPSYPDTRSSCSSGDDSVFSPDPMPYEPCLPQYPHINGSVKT
Sequence of FGFR3 enzyme (P22607 23-806): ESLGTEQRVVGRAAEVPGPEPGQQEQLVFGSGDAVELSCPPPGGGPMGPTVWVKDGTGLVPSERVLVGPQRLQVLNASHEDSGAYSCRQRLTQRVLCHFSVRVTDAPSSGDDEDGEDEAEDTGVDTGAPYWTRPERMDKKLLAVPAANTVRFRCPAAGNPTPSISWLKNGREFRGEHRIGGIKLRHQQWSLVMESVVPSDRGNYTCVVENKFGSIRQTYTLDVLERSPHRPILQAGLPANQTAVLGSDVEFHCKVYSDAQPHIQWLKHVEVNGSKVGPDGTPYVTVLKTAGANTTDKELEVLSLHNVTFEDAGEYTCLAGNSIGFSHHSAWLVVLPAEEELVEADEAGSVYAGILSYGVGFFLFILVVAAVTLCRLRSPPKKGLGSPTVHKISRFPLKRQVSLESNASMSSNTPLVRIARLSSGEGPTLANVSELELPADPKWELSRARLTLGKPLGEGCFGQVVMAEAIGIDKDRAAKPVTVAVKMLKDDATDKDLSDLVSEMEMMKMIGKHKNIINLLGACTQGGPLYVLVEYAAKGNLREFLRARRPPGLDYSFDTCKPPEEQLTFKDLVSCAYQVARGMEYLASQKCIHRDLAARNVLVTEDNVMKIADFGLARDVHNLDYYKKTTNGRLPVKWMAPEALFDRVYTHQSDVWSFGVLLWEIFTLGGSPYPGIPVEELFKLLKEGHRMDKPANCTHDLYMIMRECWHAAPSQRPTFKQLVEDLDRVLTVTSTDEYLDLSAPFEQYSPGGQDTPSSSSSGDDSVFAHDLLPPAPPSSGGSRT
Sequence of FGFR1 (P11362 22-822): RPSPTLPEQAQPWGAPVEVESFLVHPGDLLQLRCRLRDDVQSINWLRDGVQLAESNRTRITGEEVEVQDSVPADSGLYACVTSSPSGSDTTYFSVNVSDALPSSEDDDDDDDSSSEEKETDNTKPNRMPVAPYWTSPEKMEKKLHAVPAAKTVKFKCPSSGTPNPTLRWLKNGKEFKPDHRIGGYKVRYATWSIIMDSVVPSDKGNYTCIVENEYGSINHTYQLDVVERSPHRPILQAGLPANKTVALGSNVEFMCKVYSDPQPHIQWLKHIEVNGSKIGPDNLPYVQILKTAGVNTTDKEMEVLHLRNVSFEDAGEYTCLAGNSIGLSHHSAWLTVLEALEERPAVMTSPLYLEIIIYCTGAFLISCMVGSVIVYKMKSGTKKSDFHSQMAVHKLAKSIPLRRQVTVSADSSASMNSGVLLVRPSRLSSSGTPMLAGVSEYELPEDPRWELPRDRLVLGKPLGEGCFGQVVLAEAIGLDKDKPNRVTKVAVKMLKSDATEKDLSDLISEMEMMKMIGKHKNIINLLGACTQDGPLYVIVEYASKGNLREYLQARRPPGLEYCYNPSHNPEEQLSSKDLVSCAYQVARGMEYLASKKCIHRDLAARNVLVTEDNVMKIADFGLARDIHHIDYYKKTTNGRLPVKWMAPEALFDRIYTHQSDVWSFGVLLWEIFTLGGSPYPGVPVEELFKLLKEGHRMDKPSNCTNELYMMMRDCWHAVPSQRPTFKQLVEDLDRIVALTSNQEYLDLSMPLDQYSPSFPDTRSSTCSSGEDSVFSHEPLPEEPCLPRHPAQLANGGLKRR

IC50 (FGFR3 enzyme; pre-incubated for 4 hours) [nM]	IC50 (FGFR1; [2]) [nM]	IC50 (FGFR2; pre-incubated for 4 hours) [nM]	SMILES	also measured
< 10		< 10	COc1cc(OC)c(F)c(N2Cc3cnc(-c4cn(C)nc4C)cc3N(Cc3ccccn3)C2=O)c1F [Example 94, 3-(2,6-difluoro-3,5-dimethoxyphenyl)-7-(1,3-dimethyl-1H-pyrazol-4-yl)-1-(pyridin-2-ylmethyl)-3,4-dihydropyrido[4,3-d]pyrimidin-2(1H)-one]	IC50 (FGFR1; read-out: FGFR1 IC50, pre-incubated for 4 hours): < 10 nM

Further lines, the molecule ahead of its results:

SMILES	IC50 (FGFR3 enzyme; pre-incubated for 4 hours) [nM]	IC50 (FGFR1; [2]) [nM]	IC50 (FGFR2; pre-incubated for 4 hours) [nM]	also measured
CCn1cc(CN2C(=O)N(c3c(F)c(OC)cc(OC)c3F)Cc3cnc(-c4cnn(C)c4)cc32)cn1 [Example 145, 3-(2,6-difluoro-3,5-dimethoxyphenyl)-1-((1-ethyl-1H-pyrazol-4-yl)methyl)-7-(1-methyl-1H-pyrazol-4-yl)-3,4-dihydropyrido[4,3-d]pyrimidin-2(1H)-one]				IC50 (FGFR3 enzyme; [1]): < 10 nM; IC50 (FGFR1; read-out: FGFR1 IC50, pre-incubated for 5 to 10 minutes): < 10 nM; IC50 (FGFR2; [1]): < 10 nM
COc1cc(OC)c(F)c(N2Cc3cnc(-c4cn(C)nc4C)cc3N(c3ccc4c(c3)C(=O)N(C)C4)C2=O)c1F [Example 120, 3-(2,6-difluoro-3,5-dimethoxyphenyl)-7-(1,3-dimethyl-1H-pyrazol-4-yl)-1-(2-methyl-3-oxoisoindolin-5-yl)-3,4-dihydropyrido[4,3-d]pyrimidin-2(1H)-one]				IC50 (FGFR3 enzyme; [1]): 10 to 30 nM; IC50 (FGFR2; [1]): 10 to 30 nM
COc1cc(OC)c(F)c(N2Cc3cnc(-c4cnn(C)c4)cc3N(c3ccc(C#N)cc3)C2=O)c1F [Example 144, 4-(3-(2,6-difluoro-3,5-dimethoxyphenyl)-7-(1-methyl-1H-pyrazol-4-yl)-2-oxo-3,4-dihydropyrido[4,3-d]pyrimidin-1(2H)-yl)benzonitrile]				IC50 (FGFR3 enzyme; [1]): 10 to 30 nM; IC50 (FGFR2; [1]): 10 to 30 nM
COc1cc(OC)c(F)c(N2Cc3cnc(-c4cncc(NS(C)(=O)=O)c4)cc3C3(CC3)C2=O)c1F [Example 15, N-(5-(2′-(2,6-difluoro-3,5-dimethoxyphenyl)-3′-oxo-2′,3′-dihydro-1′H-spiro[cyclopropane-1,4′-[2,7]naphthyridine]-6′-yl)pyridin-3-yl)methanesulfonamide]	30 to 200		30 to 200	IC50 (FGFR3 enzyme; [1]): 30 to 200 nM; IC50 (FGFR4; [1]): < 10 nM; IC50 (FGFR4; pre-incubated for 4 hours): < 10 nM; IC50 (FGFR2; [1]): 30 to 200 nM
COc1cc(OC)c(F)c(N2Cc3cnc(-c4cnn(C5CN(S(C)(=O)=O)C5)c4)cc3C3(CC3)C2=O)c1F [Example 55, 2′-(2,6-difluoro-3,5-dimethoxyphenyl)-6′-(1-(1-(methylsulfonyl)azetidin-3-yl)-1H-pyrazol-4-yl)-1′H-spiro[cyclopropane-1,4′-[2,7]naphthyridin]-3′(2′H)-one]		10 to 30		
COc1cc(OC)c(F)c(N2Cc3cnc(-c4ccn(C)n4)cc3N(c3ccc(C#N)cc3)C2=O)c1F [Example 142, 4-(3-(2,6-difluoro-3,5-dimethoxyphenyl)-7-(1-methyl-1H-pyrazol-3-yl)-2-oxo-3,4-dihydropyrido[4,3-d]pyrimidin-1(2H)-yl)benzonitrile]				IC50 (FGFR3 enzyme; [1]): 10 to 30 nM; IC50 (FGFR2; [1]): 30 to 200 nM
CCN1C(=O)N(c2c(F)c(OC)cc(OC)c2F)Cc2cnc(-c3cn(Cc4cccnc4)nc3C)cc21 [Example 50, 3-(2,6-difluoro-3,5-dimethoxyphenyl)-1-ethyl-7-(3-methyl-1-(pyridin-3-ylmethyl)-1H-pyrazol-4-yl)-3,4-dihydropyrido[4,3-d]pyrimidin-2(1H)-one]		30 to 200		
COc1cc(OC)c(F)c(N2Cc3cnc(-c4cn(C)nc4C)cc3N(c3cccc(C#N)c3)C2=O)c1F [Example 60, 3-(3-(2,6-difluoro-3,5-dimethoxyphenyl)-7-(1,3-dimethyl-1H-pyrazol-4-yl)-2-oxo-3,4-dihydropyrido[4,3-d]pyrimidin-1(2H)-yl)benzonitrile]	< 10			
COc1cc(OC)c(F)c(N2Cc3cnc(-c4cccnc4)cc3C3(CC3)C2=O)c1F [Example 9, 2′-(2,6-difluoro-3,5-dimethoxyphenyl)-6′-(pyridin-3-yl)-1′H-spiro[cyclopropane-1,4′-[2,7]naphthyridin]-3′(2′H)-one]	10 to 30		30 to 200	IC50 (FGFR3 enzyme; [1]): 30 to 200 nM; IC50 (FGFR4; [1]): 10 to 30 nM; IC50 (FGFR4; pre-incubated for 4 hours): 10 to 30 nM; IC50 (FGFR2; [1]): 10 to 30 nM
